Values quoted from earlier work in patent publication US8680270B2, “Metallo-oxidoreductase inhibitors using metal binding moieties in combination with targeting moieties” (Viamet Pharmaceuticals, Inc., priority 2006, dated 2014).
Where two headings read alike, the source gives them in different places.

Columns and labels:
Plasmodium falciparum [1] = system: Plasmodium falciparum
Plasmodium falciparum [2] = system: Plasmodium falciparum; remark: listed apart in the source
NOS = system: NOS; design: dose or concentration left out as unconfirmed; details: broken cell preparations
sGC = target: T1, sGC (Homo sapiens, UniProt Q02153); design: dose or concentration left out as unconfirmed; details: broken cell preparations
T1 sequence (Q02153 1-619): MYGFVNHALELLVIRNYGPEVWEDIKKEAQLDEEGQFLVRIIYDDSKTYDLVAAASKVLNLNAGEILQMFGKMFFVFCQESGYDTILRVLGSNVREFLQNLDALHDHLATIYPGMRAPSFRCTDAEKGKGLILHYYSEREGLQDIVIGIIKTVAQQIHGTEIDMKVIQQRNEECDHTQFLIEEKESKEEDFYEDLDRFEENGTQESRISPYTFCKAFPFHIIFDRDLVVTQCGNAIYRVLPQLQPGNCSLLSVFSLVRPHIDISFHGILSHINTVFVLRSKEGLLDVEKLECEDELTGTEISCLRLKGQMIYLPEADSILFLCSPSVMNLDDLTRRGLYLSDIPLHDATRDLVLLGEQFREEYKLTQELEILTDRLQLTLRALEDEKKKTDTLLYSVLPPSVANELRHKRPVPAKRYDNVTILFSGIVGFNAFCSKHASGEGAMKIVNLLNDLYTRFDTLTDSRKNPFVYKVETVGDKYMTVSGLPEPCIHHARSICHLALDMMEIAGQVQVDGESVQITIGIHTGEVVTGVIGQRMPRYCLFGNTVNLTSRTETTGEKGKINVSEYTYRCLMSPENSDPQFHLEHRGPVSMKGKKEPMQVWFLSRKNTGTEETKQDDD
T1 sequence (Q02108 1-690 partner): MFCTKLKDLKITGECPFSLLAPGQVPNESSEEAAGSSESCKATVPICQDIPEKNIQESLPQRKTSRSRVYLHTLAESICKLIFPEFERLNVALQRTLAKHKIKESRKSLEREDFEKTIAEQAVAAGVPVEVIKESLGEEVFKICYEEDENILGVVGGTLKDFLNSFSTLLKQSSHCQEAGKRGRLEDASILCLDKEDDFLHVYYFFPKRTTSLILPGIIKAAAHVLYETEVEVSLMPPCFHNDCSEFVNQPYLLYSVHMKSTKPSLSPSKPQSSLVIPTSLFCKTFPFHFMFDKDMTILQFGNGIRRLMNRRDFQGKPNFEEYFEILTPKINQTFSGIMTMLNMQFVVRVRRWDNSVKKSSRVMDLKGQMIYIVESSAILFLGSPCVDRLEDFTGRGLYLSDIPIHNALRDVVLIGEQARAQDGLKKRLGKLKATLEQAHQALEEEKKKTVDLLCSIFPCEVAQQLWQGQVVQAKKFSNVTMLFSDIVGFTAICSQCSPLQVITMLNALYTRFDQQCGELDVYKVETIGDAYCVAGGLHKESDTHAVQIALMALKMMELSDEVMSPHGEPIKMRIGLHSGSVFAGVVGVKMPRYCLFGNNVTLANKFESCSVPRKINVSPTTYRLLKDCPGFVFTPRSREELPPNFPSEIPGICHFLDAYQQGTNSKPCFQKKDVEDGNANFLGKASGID

HO (heme oxygenase) = system: HO (heme oxygenase); design: dose or concentration left out as unconfirmed; details: broken cell preparations
[3] = system: androgen-independent, anaplastic AT-6 tumors; details: 120 mg/100 gm food, equivalent to 100 mg/kg per day
[4] = system: androgen-dependent Dunning-H tumor; details: 120 mg/100 gm food, equivalent to 100 mg/kg per day

In the case of `O=CN(O)CCCP(=O)(O)O` [fosmidomycin], the “Subjects cured on day 28” value (Plasmodium falciparum [1]; Gabon, seven out of nine subjects) is listed as 78%, the “Subjects cured on day 28” value (Plasmodium falciparum [1]; Thailand, two out of nine subjects) is listed as 22% and the “Clinical and parasitological cure on day 7 (primary end point)” value (Plasmodium falciparum [1]; oral 1,200 mg every 8 h for 7 days) is listed as “All subjects were clinically and parasitologically cured”. For the same molecule, the Tolerability (Plasmodium falciparum [1]; oral 1,200 mg every 8 h for 7 days, mild gastrointestinal side effects in five subjects) was “well tolerated”, the “Cure rate by day 14” value (Plasmodium falciparum [2]; 1.2 g every 8 h for 3 days, six of ten) was 60% and the “Cure rate by day 14” value (Plasmodium falciparum [2]; 1.2 g every 8 h for 4 days, seven of eight) was 88%. The “Cure rate by day 14” value (Plasmodium falciparum [2]; 1.2 g every 8 h for 5 days, eight of nine) was 89% and the Tolerability (Plasmodium falciparum [2]; all treatment regimens, 1.2 g every 8 h for 5, 4 or 3 days) was “well tolerated”.

In the case of chromium mesoporphyrin IX [CrMP], the “Effect on NOS” value (NOS) is given as “little or no effect”, the “Effect on sGC” value (sGC) is given as “little or no effect” and the “Inhibition of HO” value (HO (heme oxygenase)) is given as 90%.

In the case of `Clc1cccc(C(c2ccc3[nH]cnc3c2)n2ccnc2)c1` (stereo not shown) [Liarozole], the “Reduction of tumor growth” value [3] is listed as −73% and the “Median tumor volume decrease” value [4] is listed as 60%.
